Reference: paper PMC5776727 (Bioorganic & medicinal chemistry letters, 2015)

Target: CXCR4 (Homo sapiens, UniProt P61073)
Experiment: inhibition of CXCL12
Format: cell-based
Conditions: read-out: SDF-1 Ca2+ Flux CEM-1 IC50; SDF-1 induced calcium release; duplicate

CXCR4, sequence (P61073 whole entry): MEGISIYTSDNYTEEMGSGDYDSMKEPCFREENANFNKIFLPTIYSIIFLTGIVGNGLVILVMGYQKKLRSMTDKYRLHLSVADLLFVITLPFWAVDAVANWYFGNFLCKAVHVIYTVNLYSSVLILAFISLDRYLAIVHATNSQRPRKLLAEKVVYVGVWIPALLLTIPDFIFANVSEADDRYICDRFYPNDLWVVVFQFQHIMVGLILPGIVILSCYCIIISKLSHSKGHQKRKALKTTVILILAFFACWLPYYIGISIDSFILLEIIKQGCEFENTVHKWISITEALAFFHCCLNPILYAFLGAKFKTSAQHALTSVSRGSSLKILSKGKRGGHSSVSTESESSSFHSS

- IC50: 21 µM
SMILES: NCCCCN(C[C@H]1CN(C(=O)Nc2ccccc2)CCN1)[C@H]1CCCc2cccnc21 [Compound 57a]
